The text below walks through data of patent publication US8207293B2, “Peptides derived from maurocalcine used as vectors for intracellular addressing of molecules of interest” (Commissariat a l'Energie Atomique, priority 2004, dated 2012).

Test [1] has as its system HEK293 cells. Nature of the test: Cell penetration and subcellular distribution of complexes in HEK293 cells, confocal microscopy. The class given is cell-based, human. The note with it: 333 nM, 30 min. The protocol:
Soluble streptavidin-cyanin 3 and streptavidin-cyanin 5 (Strept-Cy^3 and Strept-Cy^5, AMERSHAM) were mixed with 4 molar equivalents of biotinylated maurocalcine (1 mM) or biotinylated maurocalcine-derived peptide, in phosphate buffer (PBS, in mM: 136 NaCl, 1.47 Na2HPO4, 2.6 KCl, 1 CaCl2, 0.5 MgCl2, pH 7.2), for 2 hours at 37° C. and in the dark.
The human embryonic kidney cells (HEK 293 line, ATCC) are divided before confluence, by treatment with trypsin (1%), and are maintained in DMEM medium (INVITROGEN) containing 10% of inactivated fetal calf serum (INVITROGEN) and 1% of penicillin/streptomycin (INVITROGEN), in a CO2 incubator (5%). The culture medium is changed every 2 days.
The cells were incubated with maurocalcine and the derived peptides, biotinylated and complexed with streptavidin-cyanin 3 or with streptavidin-cyanin 5, […], in the dark and at ambient temperature, for 30 minutes to 1 hour. After 3 washes in PBS, the cells are fixed at ambient temperature, in a paraformaldehyde solution (4%), for 10 min, in the dark, washed in PBS and incubated for one hour with FITC-conjugated concanavalin (MOLECULAR PROBES, 5 μg/ml) in order to label the plasma membrane, and TO-PRO-3 iodide (MOLECULAR PROBES, 1 μM) in order to label the nucleus. In order to label the cytoskeleton, the cells were fixed and permeabilized with ice-cold methanol, for 10 min, washed twice in PBS and incubated with a mouse anti-alpha-tubulin antibody (1:1000, SIGMA), for 2 hours. After two washes in PBS, the cells were incubated for one hour with an anti-mouse IgG secondary antibody conjugated to Alexa 488 (1:1000, MOLECULAR PROBES). The cultures were then mounted in Vectashield mounting medium (VECTOR LABORATORIES). Preparations were observed by laser scanning confocal microscopy, using a Leica TCS-SP2 control system. The Alexa-488 and Cy3 or propidium iodide (PI) fluorescences were excited sequentially and then recorded. The Cy3 fluorescence was excited using a 543 nm helium-neon laser beam and the fluorescence emission was recorded between 554 nm and 625 nm. The images were introduced into Adobe Photoshop 7.0.

Test [2] deals with HEK293 cells. The test can be described thus: Flow cytometry analysis of cellular penetration of complexes (trypsin/heparin treatment). The class given is cell-based, human. The note with it: for penetrating activity compared with maurocalcine (factor): biotinylated variant/Strept-Cy3 complexes, FIG. 5. The protocol:
The cells are incubated with maurocalcine and the derived peptides, biotinylated and complexed with […], at the final concentration of 100 nM in PBS, in the dark and at ambient temperature for 1 hour. After 2 washes in PBS (PBS, in mM: […], 6.84 Na2HPO4, 3.16 NaH2PO4, pH 7.2), and the cells were treated with trypsin (1 mg/ml, INVITROGEN), for 10 min at 37° C., in order to remove the extracellular complexes and the plasma-membrane-bound complexes. After the incubation with trypsin, the cell suspension was centrifuged at 500 g and the cells were resuspended in PBS containing 1 μg/ml of propidium iodide (SIGMA). […] The analysis was carried out on live cells, using a flow cytometer (FACScalibur, BECTON DICKINSON). The data were recorded and analyzed using appropriate software (CellQuest, BD BIOSCIENCES). The live cells were sorted according to their size and their granulosity (forward/side scattering), over a total of 10 000 events.
The analysis is carried out as described in Example 1. For the heparin treatment experiments, the complexes were prepared in a heparin solution (bovine intestine heparin, sodium salt, SIGMA) and the cells were washed twice with the heparin solution, before and after incubation with the complexes prepared in the same heparin solution.
The cellular penetration was analyzed by flow cytometry, on cells incubated with the MCab/Strept-Cy3 complexes, and then treated with trypsin, so as to remove the complexes bound to the plasma membrane by means of lipids, specific receptors or heparan sulfate glycosaminoglycan (HPSG). It has been shown that this method makes it possible to effectively study the entry of penetrating peptides into cells (Richard et al., J. Biol. Chem., 2003, 278, 585-590).
On the technique in general: Flow cytometry measures light scatter and fluorescence of single cells or particles in a stream.

The target of the next test is T1, RyR1 receptor (Oryctolagus cuniculus, UniProt P11716).
T1 construct: from tissue; host or cells: heavy sarcoplasmic reticulum vesicles (skeletal muscle implied)
T1 sequence (P11716 whole entry): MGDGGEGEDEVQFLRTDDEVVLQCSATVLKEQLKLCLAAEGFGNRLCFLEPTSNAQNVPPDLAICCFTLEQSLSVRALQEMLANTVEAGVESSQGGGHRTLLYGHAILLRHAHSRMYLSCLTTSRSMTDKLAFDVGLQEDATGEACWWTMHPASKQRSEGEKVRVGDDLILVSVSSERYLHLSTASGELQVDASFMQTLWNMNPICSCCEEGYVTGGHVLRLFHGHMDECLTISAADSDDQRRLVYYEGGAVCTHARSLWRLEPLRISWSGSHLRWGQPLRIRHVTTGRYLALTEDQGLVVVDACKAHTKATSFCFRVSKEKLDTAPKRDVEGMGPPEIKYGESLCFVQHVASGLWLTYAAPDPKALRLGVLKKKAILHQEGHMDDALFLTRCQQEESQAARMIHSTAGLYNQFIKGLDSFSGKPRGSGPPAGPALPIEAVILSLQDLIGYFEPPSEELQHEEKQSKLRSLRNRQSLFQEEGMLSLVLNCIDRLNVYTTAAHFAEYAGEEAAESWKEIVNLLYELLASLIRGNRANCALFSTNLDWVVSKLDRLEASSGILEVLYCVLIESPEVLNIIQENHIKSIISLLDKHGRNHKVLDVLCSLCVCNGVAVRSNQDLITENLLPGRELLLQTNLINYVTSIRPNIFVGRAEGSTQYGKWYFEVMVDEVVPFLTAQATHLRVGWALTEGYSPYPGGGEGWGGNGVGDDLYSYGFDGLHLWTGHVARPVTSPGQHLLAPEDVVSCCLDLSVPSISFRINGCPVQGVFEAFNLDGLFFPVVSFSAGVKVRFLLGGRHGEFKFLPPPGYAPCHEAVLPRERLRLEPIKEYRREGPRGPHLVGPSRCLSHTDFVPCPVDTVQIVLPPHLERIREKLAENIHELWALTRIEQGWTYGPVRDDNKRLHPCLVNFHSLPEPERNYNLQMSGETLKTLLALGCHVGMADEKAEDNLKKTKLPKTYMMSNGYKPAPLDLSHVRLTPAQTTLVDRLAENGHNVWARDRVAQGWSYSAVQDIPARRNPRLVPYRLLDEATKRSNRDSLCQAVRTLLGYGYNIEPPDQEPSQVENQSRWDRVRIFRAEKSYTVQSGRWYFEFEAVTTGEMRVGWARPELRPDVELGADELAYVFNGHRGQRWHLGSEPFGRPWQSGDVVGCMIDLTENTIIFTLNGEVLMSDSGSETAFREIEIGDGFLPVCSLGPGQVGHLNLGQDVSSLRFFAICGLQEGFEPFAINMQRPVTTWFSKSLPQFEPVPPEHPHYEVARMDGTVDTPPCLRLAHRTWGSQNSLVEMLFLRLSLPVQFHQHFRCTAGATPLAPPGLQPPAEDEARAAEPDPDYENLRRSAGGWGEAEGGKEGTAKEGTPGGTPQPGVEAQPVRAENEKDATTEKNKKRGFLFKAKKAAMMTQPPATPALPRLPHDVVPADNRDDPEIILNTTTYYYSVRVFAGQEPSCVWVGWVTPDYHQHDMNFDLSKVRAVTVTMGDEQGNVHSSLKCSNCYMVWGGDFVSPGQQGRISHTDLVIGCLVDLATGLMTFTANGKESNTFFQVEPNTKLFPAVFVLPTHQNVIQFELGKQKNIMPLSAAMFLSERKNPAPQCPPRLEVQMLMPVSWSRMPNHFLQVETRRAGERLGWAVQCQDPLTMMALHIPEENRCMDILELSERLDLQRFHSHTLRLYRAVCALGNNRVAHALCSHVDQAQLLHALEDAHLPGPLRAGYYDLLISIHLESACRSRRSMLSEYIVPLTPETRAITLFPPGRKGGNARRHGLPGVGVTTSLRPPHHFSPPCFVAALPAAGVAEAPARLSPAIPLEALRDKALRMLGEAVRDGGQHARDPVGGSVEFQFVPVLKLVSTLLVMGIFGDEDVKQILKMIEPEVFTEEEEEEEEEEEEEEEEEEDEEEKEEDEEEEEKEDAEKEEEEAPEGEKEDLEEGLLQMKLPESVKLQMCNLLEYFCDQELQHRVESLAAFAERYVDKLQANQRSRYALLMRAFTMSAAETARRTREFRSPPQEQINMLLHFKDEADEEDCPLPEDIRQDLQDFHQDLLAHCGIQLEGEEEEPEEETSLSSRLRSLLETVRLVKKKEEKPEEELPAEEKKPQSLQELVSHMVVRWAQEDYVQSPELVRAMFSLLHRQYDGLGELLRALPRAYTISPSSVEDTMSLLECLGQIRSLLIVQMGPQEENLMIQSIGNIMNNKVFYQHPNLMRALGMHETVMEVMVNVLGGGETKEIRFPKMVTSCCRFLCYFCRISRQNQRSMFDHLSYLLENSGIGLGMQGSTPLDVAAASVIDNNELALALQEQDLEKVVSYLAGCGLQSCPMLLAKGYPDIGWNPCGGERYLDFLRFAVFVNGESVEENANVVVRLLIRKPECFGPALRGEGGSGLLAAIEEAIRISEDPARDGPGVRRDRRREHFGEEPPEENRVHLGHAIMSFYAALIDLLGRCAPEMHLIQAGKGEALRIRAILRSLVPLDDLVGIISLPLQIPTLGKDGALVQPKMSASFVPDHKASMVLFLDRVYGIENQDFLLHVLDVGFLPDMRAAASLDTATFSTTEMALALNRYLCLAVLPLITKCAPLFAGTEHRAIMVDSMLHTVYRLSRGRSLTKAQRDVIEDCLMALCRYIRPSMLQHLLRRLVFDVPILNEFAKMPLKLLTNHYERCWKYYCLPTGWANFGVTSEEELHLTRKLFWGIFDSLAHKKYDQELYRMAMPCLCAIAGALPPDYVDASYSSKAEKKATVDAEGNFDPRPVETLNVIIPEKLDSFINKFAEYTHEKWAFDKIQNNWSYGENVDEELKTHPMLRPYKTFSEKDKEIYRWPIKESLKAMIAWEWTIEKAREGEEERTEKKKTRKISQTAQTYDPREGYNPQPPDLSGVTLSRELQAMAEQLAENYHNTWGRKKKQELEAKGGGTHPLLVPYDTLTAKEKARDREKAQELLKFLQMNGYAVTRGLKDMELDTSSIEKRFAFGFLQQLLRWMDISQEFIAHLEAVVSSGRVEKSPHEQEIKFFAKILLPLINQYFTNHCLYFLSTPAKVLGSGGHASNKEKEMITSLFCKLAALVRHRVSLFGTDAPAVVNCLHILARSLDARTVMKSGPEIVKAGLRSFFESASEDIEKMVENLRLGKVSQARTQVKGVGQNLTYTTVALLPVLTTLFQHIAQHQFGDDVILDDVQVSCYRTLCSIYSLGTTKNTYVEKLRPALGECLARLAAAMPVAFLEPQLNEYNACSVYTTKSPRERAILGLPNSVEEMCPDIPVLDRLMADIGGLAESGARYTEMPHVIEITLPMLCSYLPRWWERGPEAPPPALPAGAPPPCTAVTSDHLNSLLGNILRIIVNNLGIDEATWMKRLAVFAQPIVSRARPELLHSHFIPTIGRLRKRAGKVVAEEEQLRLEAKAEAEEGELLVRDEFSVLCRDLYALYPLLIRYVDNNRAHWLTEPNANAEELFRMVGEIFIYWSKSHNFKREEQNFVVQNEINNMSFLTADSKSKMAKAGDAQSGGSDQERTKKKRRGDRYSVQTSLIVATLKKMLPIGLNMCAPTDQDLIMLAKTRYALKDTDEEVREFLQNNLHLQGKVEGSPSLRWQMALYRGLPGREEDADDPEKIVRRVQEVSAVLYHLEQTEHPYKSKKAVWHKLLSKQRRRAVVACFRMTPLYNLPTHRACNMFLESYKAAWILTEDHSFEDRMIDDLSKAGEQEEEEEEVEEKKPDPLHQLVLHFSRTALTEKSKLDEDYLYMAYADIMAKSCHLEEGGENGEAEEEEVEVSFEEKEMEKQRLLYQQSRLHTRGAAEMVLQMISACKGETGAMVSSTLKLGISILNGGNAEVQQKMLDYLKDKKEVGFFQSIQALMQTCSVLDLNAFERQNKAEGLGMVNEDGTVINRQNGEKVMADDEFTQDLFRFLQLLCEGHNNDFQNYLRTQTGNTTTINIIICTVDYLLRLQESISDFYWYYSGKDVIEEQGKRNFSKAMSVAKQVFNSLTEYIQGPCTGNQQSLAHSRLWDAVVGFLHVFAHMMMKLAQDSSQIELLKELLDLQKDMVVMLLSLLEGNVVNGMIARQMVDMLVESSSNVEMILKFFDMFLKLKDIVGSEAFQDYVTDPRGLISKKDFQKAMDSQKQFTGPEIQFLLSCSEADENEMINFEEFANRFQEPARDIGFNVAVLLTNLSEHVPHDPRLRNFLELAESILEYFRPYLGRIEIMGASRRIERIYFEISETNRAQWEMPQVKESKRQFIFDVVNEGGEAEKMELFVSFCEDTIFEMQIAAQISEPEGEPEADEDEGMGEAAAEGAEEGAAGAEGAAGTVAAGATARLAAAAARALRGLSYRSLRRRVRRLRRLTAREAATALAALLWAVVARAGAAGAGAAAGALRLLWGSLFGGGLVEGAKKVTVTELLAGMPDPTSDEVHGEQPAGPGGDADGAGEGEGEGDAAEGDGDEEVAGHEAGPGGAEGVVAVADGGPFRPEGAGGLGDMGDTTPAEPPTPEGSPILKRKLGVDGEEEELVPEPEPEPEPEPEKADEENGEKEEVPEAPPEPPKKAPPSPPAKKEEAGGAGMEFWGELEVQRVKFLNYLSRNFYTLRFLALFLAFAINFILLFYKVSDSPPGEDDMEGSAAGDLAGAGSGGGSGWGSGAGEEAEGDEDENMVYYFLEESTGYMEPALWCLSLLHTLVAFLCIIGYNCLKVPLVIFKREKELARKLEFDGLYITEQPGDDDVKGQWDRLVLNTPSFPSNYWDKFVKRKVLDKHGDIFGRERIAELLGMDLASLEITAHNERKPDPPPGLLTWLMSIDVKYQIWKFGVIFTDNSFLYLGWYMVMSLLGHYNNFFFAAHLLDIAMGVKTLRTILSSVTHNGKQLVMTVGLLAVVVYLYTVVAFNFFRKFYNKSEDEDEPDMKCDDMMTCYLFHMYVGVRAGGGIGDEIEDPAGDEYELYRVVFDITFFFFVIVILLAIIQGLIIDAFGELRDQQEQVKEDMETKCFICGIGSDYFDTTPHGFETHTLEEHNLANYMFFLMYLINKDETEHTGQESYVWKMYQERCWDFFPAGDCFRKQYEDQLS
The test can be described thus: Tritiated ryanodine binding assay on heavy sarcoplasmic reticulum vesicles. The note with it: biotinylated variants complexed with Strept-Cy3, increasing concentrations. The protocol:
The heavy sarcoplasmic reticulum vesicles are prepared according to the method of Kim et al. (J. Biol. Chem., 1983, 258, 9662-9668) modified as described in Marty et al. (J. Biol. Chem., 2000, 275, 8206-8212). The protein concentration is measured by the Biuret method.
The heavy sarcoplasmic reticulum vesicles (1 mg/ml) are incubated at 37° C. for 2 hours and 30 min, in reaction buffer comprising 5 nM [^3H]-ryanodine, 150 mM NaCl, 2 mM EGTA, 2 mM Ca^2+ (pCa=5) and 20 mM Hepes, pH 7.4. Maurocalcine, the maurocalcine-derived peptides and their biotinylated derivatives are added before the addition of the heavy sarcoplasmic reticulum vesicles. The [^3H]-ryanodine bound to the heavy sarcoplasmic vesicles is measured by filtration through Whatmann GF/B filters, followed by three washes with 5 ml of ice-cold washing buffer (150 mM NaCl, 20 mM Hepes, pH 7.4). The [^3H]-ryanodine retained on the filters is measured by liquid scintillation. The nonspecific binding is measured in the presence of […] ryanodine (20 μM). The results are given in the form of means±standard deviation. Each experiment is carried out in triplicate and repeated at least twice.

Test [3] in a line: Surface pressure of monomolecular lipid films (GD3). The protocol: (§1) The disialoganglioside NeuAcα2-8NeuAca2-3Galb1-aGlcb1-Cer (GD3) and dipalmitoylphosphatidylcholine (DPPC) were provided respectively by MATREYA INC and SIGMA.
(§2) The surface pressure was measured using an automatic microtensiometer (μ THROUGH SX, KIBRON INC.). The apparatus makes it possible to record kinetics of interaction of a ligand with a monomolecular film using a series of appropriate Teflon probes. All the experiments were carried out in a controlled atmosphere at 20±1. The molecular films of the lipids indicated were deposited onto an aqueous phase of ultrapure water (800 μl), using hexane:chloroform:ethanol (11:5:4, v/v/v), as described previously (Mahfoud et al., J. Biol. Chem., 2002, 277, 11292-11296). After spreading of the film, a minimum period of elapsed time of 5 min was observed, in order to allow the solvent to evaporate off. In order to measure the interaction of MCa with the lipid monolayers, various concentrations of peptides were injected into the monomolecular film with a […] Hamilton syringe and the resulting increase in pressure, produced by the incorporation of the peptide, was recorded until equilibrium was reached (maximum increase in surface pressure generally reached after an incubation of 100 to 150 min). For the dose-dependent interaction between MCa and GD3, the monomolecular films of GD3 were prepared at an initial surface pressure (pi) of 10 mN·m^−1. The results were analyzed with Filmware 2.5 software (KIBRON INC.). The system for measuring the surface pressures was accurate to 0.25 mN·m^−1 under the experimental conditions.

Test [4] in a line: Surface pressure of monomolecular lipid films (DPPC). The note with it: 1 μM. The protocol: as §1
as §2, with “For the dose-dependent interaction between MCa and GD3, the monomolecular films of GD3 were prepared at an initial surface pressure (pi) of 10 mN·m^−1.” left out, “The system for measuring the surface pressures was accurate to 0.25 mN·m^−1 under the experimental conditions.” left out

The next test relates to live cells. Nature of the test: Flow cytometry analysis of cellular penetration at increasing extracellular KCl (membrane potential). The class given is cell-based. The protocol:
The MCab-Strept-Cy^5 complexes were prepared in solutions containing various NaCl/KCl ratios (composition in mM: 145 to 5 NaCl, 5 to 145 KCl, 2.5 CaCl2, 1.2 MgCl2, 10 glucose, 10 HEPES, pH 7.4).
The cells were washed twice with the NaCl/KCl solution used to prepare the complexes, and then incubated with maurocalcine and the derived peptides, which are biotinylated and complexed with streptavidin-cyanin 3 (MCab-Strept-Cy^3 complexes), at the final concentration of 100 nM in the same NaCl/KCl solution, in the dark and at ambient temperature for 1 hour. After 2 washes in the same NaCl/KCl buffer, the cyanin 3 fluorescence was analyzed on live cells, using a flow cytometer (FACScalibur, BECTON DICKINSON). The data were recorded and analyzed using appropriate software (CellQuest, BD BIOSCIENCES). The live cells were sorted according to their size and their granulosity (forward/side scattering), over a total of 10 000 events.

Like-named read-outs stand apart in the source and are kept apart here.

For the sequence “GDCLPHAKLCKENKDCCSKKCKRRGTNIEKRCR (maurocalcine L7A mutant)”, the “transduction of HEK293 cell cultures by biotinylated variant/Strept-Cy3 complexes” value in the test with HEK293 cells [1] is “effectively transduce cell cultures”. Moreover, the “penetrating activity compared with maurocalcine (factor)” value in the test with HEK293 cells [2] is reported as 5. Besides, in the test with RyR1 receptor, the “activity on the RyR1 receptor (stimulation of [3H]-ryanodine binding)” value is on record as “less active on the RyR1 receptor than MCab/Strept-Cy3”.
Consider “GDCLPHLKLCKENKDCCSKKCKRAGTNIEKRCR (maurocalcine R24A mutant)”, for which the “transduction of HEK293 cell cultures by biotinylated variant/Strept-Cy3 complexes” value in the test on HEK293 cells [1] is on record as “effectively transduce cell cultures”. The “penetrating activity compared with maurocalcine (factor)” value in the test with HEK293 cells [2] was “comparable to, or even slightly less than, maurocalcine”. For the same sequence, in the test with RyR1 receptor, the “activity on the RyR1 receptor (stimulation of [3H]-ryanodine binding)” value was “inactive”.
With “GDCLPHLKLCKENKDCCSKKCKRRGTNIEKRCR [maurocalcine]”, the “lowest concentration at which penetration into the cells occurs” value in the test with HEK293 cells [2] (biotinylated peptide/Strept-Cy3 complexes, dose-response) was found to be 10 nM. Also, in test [3], the “concentration at which interaction with GD3 is detectable” value was 100 nM and the “concentration at which interaction with GD3 reaches a maximum” value was 750 nM. Also, in test [3] (1 μM MCa, GD3 film), the “maximum increase in surface pressure a (kinetics fit)” value was determined as 22.9 mN·m^−1 and the “time constant for the change in surface pressure b” value was 0.0003 s⁻¹. Also, the “maximum increase in surface pressure a (dose-response fit)” value in test [3] (GD3 film, as a function of MCa concentration) was determined as 22.1 mN·m^−1. Further, the EC50 in test [3] (read-out: concentration that produces 50% of the maximum effect on GD3) was 500 nM. Besides, the EC50 in test [3] (sigmoidal fit, FIG. 11B, read-out: concentration X0 giving 50% of the maximum effect on GD3 surface pressure) worked out at 490 nM. Also, in test [4], the “change in surface pressure of the DPPC film” value was “no significant change in surface pressure”. The “limitation of penetration by depolarization (increase in extracellular KCl)” value in the test on live cells is listed as “approximately 50%”.
